Test results reported in PubChem BioAssay (NCI).
“And” between values parts separate entries of the source, which are not always exact repeats. Identical values can stand only once.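 96-well plates; 48 h exposure; 5 concentrations. Endpoints by linear interpolation between flanking doses. Not reached: highest tested concentration assigned. GI50 is the concentration that inhibits growth by half. The concentration for full growth arrest is given as TGI.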

Experiments:
Experiment in all cases: NCI-60 cell line screen, 48 h
[1] = tested on: TK-10 renal
[2] = tested on: NCI-H522 lung
[3] = tested on: RXF 393 renal
[4] = tested on: OVCAR-3 ovarian
[5] = tested on: IGROV1 ovarian
[6] = tested on: SF-539 CNS
[7] = tested on: KM12 colon
[8] = tested on: U251 CNS
[9] = tested on: BT-549 breast
[10] = tested on: T-47D breast

SMILES	TGI [1] [µM]	TGI [2]	TGI [3] [µM]	TGI [4] [µM]	TGI [5] [µM]	TGI [6] [µM]	TGI [7] [µM]	TGI [8] [µM]	GI50 [1] [µM]	GI50 [7] [µM]	GI50 [8] [µM]	GI50 [4] [µM]	GI50 [5] [µM]	GI50 [6] [µM]	GI50 [2]	GI50 [3] [µM]	GI50 [9] [µM]	TGI [9] [µM]	GI50 [10] [µM]	TGI [10] [µM]
O=C(c1ccccc1)C1OC12C(=O)Nc1ccccc12 (centres undefined)	> 100	28.2 µM	54.7	97	> 100	57.4														
O=C1OC2CCCC[C@@H]2C2C[C@]34CCCCC3[C@@H](C(=O)O4)C12 (some centres undefined)	> 100	> 100 µM	> 100	> 100		> 100	> 100	> 100												
CN(C)c1cc[c]([Sn]([c]2ccc(N(C)C)cc2)([c]2ccc(N(C)C)cc2)[c]2ccc(N(C)C)cc2)cc1	31.4			18.9	19.6	33.4	22.7	21.2	15.7	5.88	8.02	3.38	5.25	15.8						
O=c1c2cc(Br)cc(Br)c2nc(CCCl)n1CCO	> 100	> 100 µM	> 100	> 100	> 100	> 100	> 100	> 100												
CCN(CC)c1ccc(N=Nc2ccc(-c3nc4ccc[n+](C)c4s3)cc2)cc1	34.5	28.5 µM		15.9	46.2	23	10.9	27.1												
CCOC(=O)NC(=O)c1cn(CCCOC(=O)CCCCCCCCCCC(=O)OCCCn2cc(C(=O)NC(=O)OCC)c(=O)[nH]c2=O)c(=O)[nH]c1=O	> 100			> 100	> 100	> 100	> 100	> 100												
C1C[OH+]CC[OH+]CC[OH+]CC[OH+]CC[OH+]1.[Cl-].[V]	> 100	> 100 µM	36.9	> 100	> 100	31.6	> 100	> 100	83.5	26.9	50.4	58.2	42.7	16.5	> 100 µM	18.1				
N#CC1CC2(C1)OCCS2 (centres undefined)	> 100	> 100 µM	> 100	> 100	> 100	> 100	> 100	> 100												
O=C1CCC(O)=C1N=Nc1ccccc1	> 100		> 100	> 100	> 100	> 100	> 100	> 100												
O=C(Nc1c(Cl)cc([N+](=O)[O-])cc1Cl)C(=O)C(C1OC(=O)c2ccccc21)[N+](=O)[O-] (centres undefined)	> 100		> 100	> 100	> 100	> 100	> 100	> 100												
C1CCC([PH+](C2CCCCC2)C2CCCCC2[PH+](C2CCCCC2)C2CCCCC2)CC1.O=C(C1[CH-]CCCC1)C1CCCC[N-]1.[Au] (centres undefined)			1.38	1.19		1.28						0.272		0.31		0.317	0.261	1.5		
C=CCc1ccc(Oc2cc(CC=C)c3c(c2O)O[C@@H](CO)[C@H]3c2ccc(O)c(-c3cc(CC=C)ccc3O)c2)cc1	> 100	32.6 µM	> 100	> 100	72.8	> 100	> 100	51.8												
O=C1CSC(/C(=N/Nc2ccccc2)c2nc3ccccc3[nH]2)=N1	> 100	> 100 µM		73.2	> 100	85.2	> 100	> 100												
O=C1[C@@H]2C(c3ccccc3F)=NO[C@@H]2C(=O)N1c1ccc(Cc2ccc(N3C(=O)[C@H]4C(c5ccccc5F)=NO[C@H]4C3=O)cc2)cc1	> 31.6	> 100 µM	> 81.3	> 100	> 100	> 100	> 100	> 100												
COc1cc(/C=C(\C#N)c2ccccc2)cc(OC)c1	> 100	> 100 µM		> 100	> 100	> 100	> 100	> 100												
O=C1CC2CCCC23CC2(CCN13)OCCO2 (centres undefined)	> 100	> 100 µM	> 100	> 100	> 100	> 100	> 100	> 100												
COc1cc2[nH]c(C(=O)c3cc(OC)c(OC)c(OC)c3)c(N)c2cc1C#CC1CC1	> 100			5.74	> 100	4.77	> 100	> 100	40	2.51	4.74	1.53	6.01	0.815					3.02	> 100
Clc1ccc2c(c1)-c1c3c(nn1-c1ccccc1)-c1ccccc1SC3O2 (centres undefined)	> 100	87.5 µM	> 100	> 100	> 100	> 100	> 100	> 100												

SMILES	TGI [1] [µM]	TGI [2]	TGI [3] [µM]	TGI [4] [µM]	TGI [5] [µM]	TGI [6] [µM]	TGI [7] [µM]	TGI [8] [µM]	GI50 [1] [µM]	GI50 [7] [µM]	GI50 [8] [µM]	GI50 [4] [µM]	GI50 [5] [µM]	GI50 [6] [µM]	GI50 [2]	GI50 [3] [µM]	GI50 [9] [µM]	TGI [9] [µM]	GI50 [10] [µM]	TGI [10] [µM]
CN(CCC#N)c1ccc(/C=C(\C#N)c2ccc(Br)cc2)cc1	> 100		> 100		> 100		> 100		> 100	3.7			> 100			3.37	> 100	> 100		
CCCCCCCCCCCC(=O)OCC1OC(OC)C(NC(=O)N(CCCl)N=O)C(O)C1O (centres undefined)	61	24.7 µM	26.4	33.4	> 100	14.8	37.1	26.1												
O=C1NC2OC(C(O)CO)C(O)C2O1 (centres undefined)	> 100	> 100 µM		> 100	> 100		> 100	> 100												
ClCc1cccc(Cn2cnc3nc(Cl)nc(Cl)c32)c1	10.8	3.79 µM	2.92	2.86	8.92	0.496	35.4	2.38	5.95	16.7	1.1	1.53	4.45	0.189	1.84 µM	1.33	0.487	1.75		
O=C1NC(=O)C(CC2CCCCCCCCCCC2=O)C(=O)N1 (centres undefined)	> 100	> 100 µM	> 100	> 100	> 100	> 100	> 100	> 100										> 100		
O=C(O)[C@H](NS(=O)(=O)c1ccc([N+](=O)[O-])cc1)c1ccccc1	> 100	> 100 µM	> 100	> 100	> 100	> 100	> 100	> 100												
O=C(NCO)NCOCn1c(=O)n(CO)c(=O)n(CO)c1=O	> 100		30.8	> 100	> 100	> 100	> 62.8	> 100												
COc1cc(NC(C)CCCN)c2nccc(C)c2c1 (centres undefined)	63.5	33.3 µM		67.9	44.6	35.3	32.5	56.8										56.7		
Cc1c(C(=O)/C=C/c2ccccc2)[n+](=O)c2ccccc2n1[O-]	51.1	19.4 µM	20.9	30.6	45.2	29.7	29.9	29.7												
c1ccc(C2Nc3ccccc3C3OCCCC23)cc1 (centres undefined)			50.4		70.2	31.5	> 100	38.3												
Cn1c2ccccc2c(=O)c2ccc(Cl)cc21	> 10		> 10	> 10	> 10	> 10	> 10													> 10
C/C(CC(=O)NCCc1ccccc1)=N\NC(=O)C[n+]1ccccc1	> 100	> 100 µM	> 100	> 100	> 100	> 100	> 100	> 100												
NC(=O)NCc1c(C(N)=O)ncn1Cc1ccccc1	> 100		> 100	> 100	> 100	> 100		> 100												
COc1ccc(/C=C/c2cc(OC)cc(=O)o2)cc1	> 100		> 100	> 100	> 100	46.1	> 100	76.9												> 100
S=C1OC2CCCC[C@H]2O1 (some centres undefined)	> 100	> 100 µM	> 100	> 100	> 100	> 100	> 100	> 100												
O=C1/C(=C/c2cccc([N+](=O)[O-])c2)COc2ccc(Br)cc21	> 100	> 100 µM	> 100	> 100	> 100	> 100	> 100	> 100												
C=CC/C=C/C/C=C/CCCCCCCc1cccc(O)c1C(=O)O	> 100	> 100 µM		> 100	> 100	> 100	> 100	46												
CCCSc1nc(COC(=O)NC)c(COC(=O)NC)n1C		45.1 µM and > 100 µM	> 100	> 100	> 100	> 100	> 100	> 100							22.1 µM and 55.5 µM					
